Experimental data: ChEMBL document CHEMBL2385025, “Detour of prenostodione synthesis towards pyrazolones for antibacterial activity” (2013)

How the values were obtained:
Staphylococcus aureus [1] = test: Growth inhibition of Staphylococcus aureus MRSA 1094 at 50 uM relative to control; details: read-out: GI
Staphylococcus aureus [2] = test: Inhibition of biofilm formation of Staphylococcus aureus ATCC 35556 at 50 uM by crystal violet staining-based spectrophotometric analysis relative to control; type: functional
Pseudomonas aeruginosa [3] = test: Growth inhibition of Pseudomonas aeruginosa PAO1 at 50 uM relative to control; type: functional; details: read-out: GI
[4] = test system: Staphylococcus epidermidis; test: Inhibition of biofilm formation of Staphylococcus epidermidis GTC 18972 at 50 uM by crystal violet staining-based spectrophotometric analysis relative to control; type: functional
Staphylococcus aureus [5] = test: Growth inhibition of methicillin-sensitive Staphylococcus aureus at 50 uM relative to control; type: functional; details: read-out: GI
Pseudomonas aeruginosa [6] = test: Inhibition of biofilm formation of Pseudomonas aeruginosa PAO1 at 50 uM by crystal violet staining-based spectrophotometric analysis relative to control; type: functional
Staphylococcus aureus [7] = test: Growth inhibition of Staphylococcus aureus ATCC 35556 at 50 uM relative to control; type: functional; details: read-out: GI
[8] = test system: Staphylococcus epidermidis; test: Growth inhibition of Staphylococcus epidermidis GTC 18972 at 50 uM relative to control; type: functional; details: read-out: GI
Staphylococcus aureus [9] = test: Inhibition of biofilm formation of Staphylococcus aureus MRSA 1094 at 50 uM by crystal violet staining-based spectrophotometric analysis relative to control
Staphylococcus aureus [10] = test: Inhibition of biofilm formation of methicillin-sensitive Staphylococcus aureus at 50 uM by crystal violet staining-based spectrophotometric analysis relative to control; type: functional
[11] = test system: Staphylococcus epidermidis; test: Inhibition of biofilm formation of Staphylococcus epidermidis 1457 at 50 uM by crystal violet staining-based spectrophotometric analysis relative to control; type: functional
[12] = test system: Staphylococcus epidermidis; test: Growth inhibition of Staphylococcus epidermidis 1457 at 50 uM relative to control; type: functional; details: read-out: GI

| SMILES | inhibition of growth at 50 µM (Staphylococcus aureus [1]) [%] | inhibition at 50 µM (Staphylococcus aureus [2]) [%] | inhibition of growth at 50 µM (Pseudomonas aeruginosa [3]) [%] | inhibition at 50 µM [4] [%] | inhibition of growth at 50 µM (Staphylococcus aureus [5]) [%] | inhibition at 50 µM (Pseudomonas aeruginosa [6]) [%] | inhibition of growth at 50 µM (Staphylococcus aureus [7]) [%] | inhibition of growth at 50 µM [8] [%] | inhibition at 50 µM (Staphylococcus aureus [9]) [%] | inhibition at 50 µM (Staphylococcus aureus [10]) [%] | inhibition at 50 µM [11] [%] | inhibition of growth at 50 µM [12] [%] |
| --- | --- | --- | --- | --- | --- | --- | --- | --- | --- | --- | --- | --- |
| COC(=O)CC1=NN(c2ccccc2)C(=O)/C1=C\c1cc(OC)c(OC)c(OC)c1 | 20.9 | 31.2 | -0.864 | 12.8 | 1.49 | 11 | -3.34 | 33.8 | 2.88 | 19.8 | 10.6 | 15.8 |
| COC(=O)CC1=NN(c2ccccc2)C(=O)/C1=C\c1ccccc1Br | 53.5 | 65.8 | 9.21 | 82.6 | 8.69 | -22.9 | -6.96 | 55 | 87.9 | 46.5 | 50.8 | 32.4 |
| COC(=O)CC1=NN(c2ccccc2)C(=O)/C1=C\c1ccc(OC)cc1OC | -0.169 | 1.53 | -3.78 | -5.55 | -6.08 | -31.1 | -5.55 | 20.5 | 37.6 | -61.9 | -0.983 | -1.75 |
| COC(=O)CC1=NN(c2ccccc2)C(=O)/C1=C\c1ccc(O)cc1 | 7.95 | -0.723 | 14.1 | 2.6 | -5.33 | -5.96 | -7.76 | 30.2 | -7.01 | 9.96 | 3.69 | 15 |
| COC(=O)CC1=NN(c2ccccc2)C(=O)/C1=C\c1ccc(Cl)cc1 | 38 | 88.1 | -5.15 | 20.4 | 21.9 | 9.68 | 10.3 | 32.4 | 21.5 | 86.7 | 6.08 | 23.1 |
| CCOc1ccc(/C=C2\C(=O)N(c3ccccc3)N=C2CC(=O)OC)cc1OC | 2.81 | 34 | -1.25 | 15.6 | -0.402 | -5.61 | -2.46 | 22 | 15.2 | 57.8 | -1.83 | 4.08 |
| COC(=O)CC1=NN(c2ccccc2)C(=O)/C1=C\c1c[nH]c2ccccc12 | 0.914 | 62 | -10.8 | 54.5 | -19.4 | -38.5 | -19.7 | -2.37 | -126 | 8.02 | 47.7 | -7.59 |
| COC(=O)CC1=NN(c2ccccc2)C(=O)/C1=C\c1ccc(N(C)C)cc1 | 11.5 | 9.7 | 2.45 | 3.75 | -11.4 | -79.8 | -18.4 | 27.7 | 35.9 | -27.3 | 1.24 | 9.19 |
| COC(=O)CC1=NN(c2ccccc2)C(=O)/C1=C\c1ccco1 | 20.4 | 6.49 | -14.8 | 12.1 | -5.33 | 13.9 | -15.4 | 25.9 | -167 | -15.6 | 9.86 | 13.9 |
| COC(=O)CC1=NN(c2ccccc2)C(=O)/C1=C\c1ccsc1 | 15 | 0.355 | 10.8 | 10.8 | -3.06 | -4.41 | -17.5 | 33.8 | -23.8 | -5.79 | 2.03 | 14.3 |
